SMILES strings stand for the structures.

Data set [1] is described as follows: Plasma unbound drug concentration at steady state in UUO surgery-induced renal fibrosis C57BL/6J mouse model at 3 mg/kg/day, sc administered with mini osmotic pump measured after 3 days. The data set is classed as ADME, organism-based. To be noted: in vivo, 72 h, time 3 day.
Data set [2] concerns the target T1, CYP3A (Homo sapiens, UniProt P08684+P20815+P24462+Q9HB55). As to the kind of experiment: Time dependent inhibition of CYP3A in human liver microsomes using midazolam as substrate at 10 uM by LC-MS/MS analysis relative to control. The data set is classed as ADME, Microsome. To be noted: probe midazolam, read-out: TDI.
The target of data set [3] is T1, CYP3A. As to the kind of experiment: Time dependent inhibition of CYP3A in human liver microsomes using testosterone as substrate at 10 uM by LC-MS/MS analysis relative to control. To be noted: probe testosterone, read-out: TDI. The data set is classed as ADME, Microsome.
A short description of data set [4]: Plasma unbound drug concentration at steady state in UUO surgery-induced renal fibrosis C57BL/6J mouse model at 1 mg/kg/day, sc administered with mini osmotic pump measured after 3 days. Particulars: in vivo, 72 h, time 3 day. The data set is classed as ADME, organism-based.
Data set [5] in a line: Fraction unbound in monkey. In kind it is ADME, Macaca mulatta. Particulars: rhesus monkey.
Another data set has as its target T2, CYP1A2 (Homo sapiens, UniProt P05177).
T2 sequence (P05177 whole entry): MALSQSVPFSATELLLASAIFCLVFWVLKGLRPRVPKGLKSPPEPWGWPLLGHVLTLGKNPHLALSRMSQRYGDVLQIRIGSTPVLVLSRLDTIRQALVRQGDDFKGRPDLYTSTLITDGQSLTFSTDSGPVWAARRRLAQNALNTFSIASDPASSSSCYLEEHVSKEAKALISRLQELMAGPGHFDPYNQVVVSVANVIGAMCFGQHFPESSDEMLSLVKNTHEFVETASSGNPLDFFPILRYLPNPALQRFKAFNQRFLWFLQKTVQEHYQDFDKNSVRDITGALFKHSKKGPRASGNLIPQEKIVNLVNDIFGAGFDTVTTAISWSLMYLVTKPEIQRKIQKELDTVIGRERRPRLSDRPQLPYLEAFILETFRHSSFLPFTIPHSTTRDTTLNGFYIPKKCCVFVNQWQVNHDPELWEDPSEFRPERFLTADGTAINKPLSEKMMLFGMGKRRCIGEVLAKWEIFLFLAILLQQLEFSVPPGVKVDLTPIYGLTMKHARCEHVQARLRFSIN
In words: Time dependent inhibition of CYP1A2 in human liver microsomes at 10 uM by LC-MS/MS analysis relative to control. The data set is classed as ADME, Microsome. Particulars: read-out: TDI.

Data set [6] is described as follows: Chemical stability of the compound in pH 7.4 aqueous solution assessed as degradation by measuring residual rate incubated for 24 hrs at 65 degC by HPLC analysis. In kind it is physicochemical. Particulars: read-out: Activity.
A further data set has as its target Neutrophil collagenase (Homo sapiens, UniProt P22894). In words: Inhibition of recombinant human MMP8 assessed as enzyme activity by measuring fluorescence using fluorogenic peptide substrate.
Data set [7] is described as follows: Fraction unbound in human. In kind it is ADME.
The target in data set [8] is T3, CYP2B6 (Homo sapiens, UniProt P20813).
T3 sequence (P20813 whole entry): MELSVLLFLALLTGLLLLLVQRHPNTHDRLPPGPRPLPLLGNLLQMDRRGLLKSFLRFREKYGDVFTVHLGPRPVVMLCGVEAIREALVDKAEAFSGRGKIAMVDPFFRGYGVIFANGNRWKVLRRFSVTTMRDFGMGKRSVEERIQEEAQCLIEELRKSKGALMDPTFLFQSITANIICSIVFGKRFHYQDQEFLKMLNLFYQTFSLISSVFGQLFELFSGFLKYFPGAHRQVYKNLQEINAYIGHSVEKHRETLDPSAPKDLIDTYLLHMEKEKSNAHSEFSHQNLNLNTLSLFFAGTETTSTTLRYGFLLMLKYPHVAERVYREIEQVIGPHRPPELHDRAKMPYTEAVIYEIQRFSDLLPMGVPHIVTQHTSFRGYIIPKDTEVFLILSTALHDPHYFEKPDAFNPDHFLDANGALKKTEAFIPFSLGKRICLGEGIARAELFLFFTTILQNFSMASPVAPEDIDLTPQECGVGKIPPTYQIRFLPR
As to the kind of experiment: Inhibition of CYP2B6 in human liver microsomes at 10 uM by LC-MS/MS analysis relative to control. The data set is classed as ADME, Microsome.

The nature of data set [9]: Volume of distribution at steady state in cynomolgus monkey at 1 mg/kg, iv. In kind it is ADME, organism-based, Macaca fascicularis. Particulars: in vivo, read-out: Vdss.
Data set [10] deals with Macrophage metalloelastase (Homo sapiens, UniProt P39900). In words: Inhibition of recombinant human MMP12 assessed as enzyme activity by measuring fluorescence using fluorogenic peptide substrate.
Chain of Macrophage metalloelastase (P39900 whole entry): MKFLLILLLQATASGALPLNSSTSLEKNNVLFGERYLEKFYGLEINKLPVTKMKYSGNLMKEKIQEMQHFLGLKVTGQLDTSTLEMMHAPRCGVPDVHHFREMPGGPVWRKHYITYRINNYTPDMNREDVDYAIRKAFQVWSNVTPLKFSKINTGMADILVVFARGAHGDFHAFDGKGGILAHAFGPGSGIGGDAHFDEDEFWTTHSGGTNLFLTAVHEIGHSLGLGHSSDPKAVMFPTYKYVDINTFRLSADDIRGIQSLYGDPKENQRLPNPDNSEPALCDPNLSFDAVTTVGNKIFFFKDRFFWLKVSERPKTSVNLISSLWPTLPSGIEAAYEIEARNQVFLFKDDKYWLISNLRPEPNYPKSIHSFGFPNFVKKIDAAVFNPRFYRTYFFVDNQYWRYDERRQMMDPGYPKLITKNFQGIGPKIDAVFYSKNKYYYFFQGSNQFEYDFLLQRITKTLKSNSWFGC
Data set [11] can be described thus: Plasma unbound drug concentration at steady state in UUO surgery-induced renal fibrosis C57BL/6J mouse model at 0.3 mg/kg/day, sc administered with mini osmotic pump measured after 3 days. In kind it is ADME, organism-based. To be noted: in vivo, 72 h, time 3 day.
A further data set concerns the target Collagenase 3 (Homo sapiens, UniProt P45452). As to the kind of experiment: Inhibition of recombinant human MMP13 assessed as enzyme activity by measuring fluorescence using fluorogenic peptide substrate.
Data set [12] in a line: Clearance in cynomolgus monkey at 1 mg/kg, iv. The data set is classed as ADME, organism-based, Macaca fascicularis. To be noted: in vivo.
Data set [13] in a line: Chemical stability of the compound in pH 7.4 aqueous solution assessed as degradation by measuring residual rate incubated measured after 2 weeks at 65 degC by HPLC analysis. In kind it is physicochemical. Particulars: read-out: Stability.
For data set [14], the target named is T3, CYP2B6. As to the kind of experiment: Time dependent inhibition of CYP2B6 in human liver microsomes at 10 uM by LC-MS/MS analysis relative to control. To be noted: read-out: TDI. The data set is classed as ADME, Microsome.
The nature of data set [15]: Inhibition of recombinant mouse MMP1 assessed as enzyme activity by measuring fluorescence using fluorogenic peptide substrate.
Data set [16] has as its target T1, CYP3A. In words: Inhibition of CYP3A in human liver microsomes using midazolam as substrate at 10 uM by LC-MS/MS analysis relative to control. In kind it is ADME, Microsome. Particulars: probe midazolam.
Data set [17] can be described thus: Volume of distribution at steady state in Sprague-Dawley rat at 0.5 mg/kg, iv. In kind it is ADME, organism-based. To be noted: in vivo, read-out: Vdss.
A further data set addresses CYP2D6 (Homo sapiens, UniProt P10635). As to the kind of experiment: Time dependent inhibition of CYP2D6 in human liver microsomes at 10 uM by LC-MS/MS analysis relative to control. The data set is classed as ADME, Microsome. To be noted: read-out: TDI.
In a further data set the target is CYP2C19 (Homo sapiens, UniProt P33261). In words: Inhibition of CYP2C19 in human liver microsomes at 10 uM by LC-MS/MS analysis relative to control. In kind it is ADME, Microsome.
Chain of CYP2C19 (P33261 whole entry): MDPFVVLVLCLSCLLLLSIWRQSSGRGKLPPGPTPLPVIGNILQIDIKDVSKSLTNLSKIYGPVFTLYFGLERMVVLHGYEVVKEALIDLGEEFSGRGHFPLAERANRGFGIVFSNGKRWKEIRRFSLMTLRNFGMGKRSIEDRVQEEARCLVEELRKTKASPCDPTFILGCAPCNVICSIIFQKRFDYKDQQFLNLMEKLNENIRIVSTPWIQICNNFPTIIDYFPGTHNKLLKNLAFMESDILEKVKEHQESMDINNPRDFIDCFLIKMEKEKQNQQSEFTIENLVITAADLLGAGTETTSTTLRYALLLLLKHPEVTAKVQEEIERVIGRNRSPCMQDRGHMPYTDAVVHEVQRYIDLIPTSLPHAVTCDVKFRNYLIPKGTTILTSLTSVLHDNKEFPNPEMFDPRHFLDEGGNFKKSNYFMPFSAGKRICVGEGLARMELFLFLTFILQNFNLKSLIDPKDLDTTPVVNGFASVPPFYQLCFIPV

Chain of CYP2D6 (P10635 whole entry): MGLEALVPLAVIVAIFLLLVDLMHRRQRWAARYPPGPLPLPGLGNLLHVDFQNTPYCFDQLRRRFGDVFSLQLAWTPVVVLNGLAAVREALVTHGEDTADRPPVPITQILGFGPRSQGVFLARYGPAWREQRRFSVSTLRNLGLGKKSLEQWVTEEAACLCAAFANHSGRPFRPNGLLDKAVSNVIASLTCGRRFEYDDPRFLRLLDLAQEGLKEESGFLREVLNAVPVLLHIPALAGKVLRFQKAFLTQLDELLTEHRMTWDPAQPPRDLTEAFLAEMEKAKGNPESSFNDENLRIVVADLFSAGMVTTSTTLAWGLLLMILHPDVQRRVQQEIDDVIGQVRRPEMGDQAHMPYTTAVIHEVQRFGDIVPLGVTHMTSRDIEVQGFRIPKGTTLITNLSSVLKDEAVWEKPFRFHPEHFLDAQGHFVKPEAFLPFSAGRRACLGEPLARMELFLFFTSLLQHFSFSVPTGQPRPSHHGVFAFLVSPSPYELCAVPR
Chain of Neutrophil collagenase (P22894 whole entry): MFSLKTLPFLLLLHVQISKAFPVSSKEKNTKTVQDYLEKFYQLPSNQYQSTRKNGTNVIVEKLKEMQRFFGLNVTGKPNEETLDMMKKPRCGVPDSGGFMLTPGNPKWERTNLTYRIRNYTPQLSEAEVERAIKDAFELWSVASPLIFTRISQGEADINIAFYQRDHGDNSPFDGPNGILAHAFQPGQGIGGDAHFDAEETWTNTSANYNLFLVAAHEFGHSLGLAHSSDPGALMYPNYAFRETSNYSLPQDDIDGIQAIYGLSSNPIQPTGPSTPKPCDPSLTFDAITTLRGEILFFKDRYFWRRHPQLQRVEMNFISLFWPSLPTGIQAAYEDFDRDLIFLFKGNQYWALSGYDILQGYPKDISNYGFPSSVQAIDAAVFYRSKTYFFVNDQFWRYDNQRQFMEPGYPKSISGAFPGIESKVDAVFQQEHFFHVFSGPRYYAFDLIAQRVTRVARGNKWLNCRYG

Turning to `CC(C)(C)[C@H](NC(=O)[C@H](Cc1ccncc1)NC(=O)CNC(=O)CC[C@H](NS(=O)(=O)c1ccc(Cl)c(C(F)(F)F)c1)C(=O)O)C(=O)Nc1ccc(C(=O)N2CCC(C(=O)N[C@H](CCCCN)C(=O)N3CC[C@H](N)C3)CC2)cc1`, the figures for the “Cp(f)” value in data set [1], in data set [4] and in data set [11] were 31 nM, 15.6 nM and 6.56 nM, respectively. Also, the inhibition at 10 µM on CYP3A [2] was -5.2%; at CYP3A [3], -13.9%; on CYP1A2 it was -5%; against CYP2B6 [8], -6.6%; on CYP2B6 [14] it was -4.8%; on CYP3A [16], 6%. Further, the figures for the inhibition at 10 µM at CYP2D6 and against CYP2C19 were -2.9% and -4.3%, respectively. Also, the figures for the fraction unbound in data set [5] and in data set [7] were 0.2 and 0.135, respectively. The remaining at 24 h in data set [6] came out at 97.9%. Besides, the 50% inhibitory concentration (IC50) at Neutrophil collagenase was over 10000 nM; in data set [10], 730 nM; on Collagenase 3, over 10000 nM; in data set [15], 4.1 nM. For the same molecule, the Vd came out at 0.145 L/kg in data set [9] and 0.179 L/kg in [17]. Further, the clearance in data set [12] was 0.918 mL/min/kg. Also, in data set [13], the remaining at 336 h is 99.1%.

The record behind these values is ChEMBL document CHEMBL5537178, “Discovery of TP0628103: A Highly Potent and Selective MMP-7 Inhibitor with Reduced OATP-Mediated Clearance Designed by Shifting Isoelectric Points” (J Med Chem, 2024).
